The record followed here is patent US6977262B2, “Dihydropyrazolopyridine compounds and pharmaceutical use thereof” (Mitsubishi Pharma Corporation, priority 2001, dated 2005).

`N#CC1=C(C2CC2)Nc2n[nH]cc2C1c1ccccc1Cl` (stereo not drawn) [Example 266, 4-(2-Chlorophenyl)-5-cyano-6-cyclopropyl-4,7-dihydro-2H-pyrazolo[3,4-b]pyridine]: the melting point is over 250 °C. `N#CC1=C(C2CCCC2)Nc2n[nH]cc2C1c1ccccc1Cl` (stereo not drawn) [Example 316, 4-(2-Chlorophenyl)-5-cyano-6-cyclopentyl-4,7-dihydro-2H-pyrazolo[3,4-b]pyridine] gave a melting point of 225 °C. To `COCn1cc(C2=C(C#N)C(c3cccc4nonc34)c3c[nH]nc3N2)c2ccccc21` (stereo not drawn) [Example 293, 4-(2,1,3-Benzoxadiazol-4-yl)-5-cyano-4,7-dihydro-6-(1-methoxymethylindol-3-yl)-2H-pyrazolo[3,4-b]pyridine] belongs 200 °C; to `Cl.N#CC1=C(C2CCNCC2)Nc2n[nH]cc2C1c1cccc(C#N)c1Br` (stereo not drawn), over 270 °C; to `Cc1cccc(C2C(C#N)=C(C(C)C)Nc3n[nH]cc32)c1[N+](=O)[O-]` (stereo not drawn) [Example 339, 5-Cyano-4,7-dihydro-4-(3-methyl-2-nitrophenyl)-6-isopropyl-2H-pyrazolo[3,4-b]pyridine], 261 °C.

In turn, `COc1ccc(C2=C(C#N)C(c3ccccc3OC)c3c[nH]nc3N2)cc1` (stereo not drawn) [Example 153, 5-Cyano-4,7-dihydro-4-(2-methoxyphenyl)-6-(4-methoxyphenyl)-2H-pyrazolo[3,4-b]pyridine] came in with a melting point of 149 °C. For `CCCC1=C(C(=O)OCC)C(c2cc(F)ccc2OC)c2c[nH]nc2N1` (stereo not drawn) [Example 51, Ethyl 4-(5-fluoro-2-methoxyphenyl)-4,7-dihydro-6-propyl-2H-pyrazolo[3,4-b]pyridine-5-carboxylate], the melting point fell in the range of 164 to 167 °C. `CNCCC1=C(C#N)C(c2cccc3nonc23)c2c[nH]nc2N1` (stereo not drawn) [Example 1016, 4-(2,1,3-Benzoxadiazol-4-yl)-5-cyano-4,7-dihydro-6-(2-(N-methylamino)ethyl)-2H-pyrazolo[3,4-b]pyridine] had a melting point of 174 °C. The result for `CCOC(=O)C1=C(c2ccccc2)Nc2n[nH]cc2C1c1cccc2nonc12` (stereo not drawn) [Example 114, Ethyl 4-(2,1,3-benzoxadiazol-4-yl)-4,7-dihydro-6-phenyl-2H-pyrazolo[3,4-b]pyridine-5-carboxylate] reads 190 °C; that for `CC1=C(C(=O)OCc2ccccc2)C(c2ccccc2Cl)c2c[nH]nc2N1` (stereo not drawn) [Example 7, Benzyl 4-(2-chlorophenyl)-4,7-dihydro-6-methyl-2H-pyrazolo[3,4-b]pyridine-5-carboxylate], 234 °C; that for `CS(=O)(=O)N1CCC(C2=C(C#N)C(c3cccc4nonc34)c3c[nH]nc3N2)CC1` (stereo not drawn) [Example 1029, 4-(2,1,3-Benzoxadiazol-4-yl)-5-cyano-4,7-dihydro-6-(1-methanesulfonylpiperidin-4-yl)-2H-pyrazolo[3,4-b]pyridine], 243 °C. The result for `CCOC(=O)CCC1=C(C#N)C(c2ccccc2Cl)c2c[nH]nc2N1` (stereo not drawn) [Example 254, 4-(2-Chlorophenyl)-5-cyano-6-(2-ethoxycarbonylethyl)-4,7-dihydro-2H-pyrazolo[3,4-b]pyridine] reads 172 to 174 °C; that for `N#CC1=C(c2cccc3ccccc23)Nc2n[nH]cc2C1c1cccc2nonc12` (stereo not drawn) [Example 169, 4-(2,1,3-Benzoxadiazol-4-yl)-5-cyano-4,7-dihydro-6-(naphthalen-1-yl)-2H-pyrazolo[3,4-b]pyridine], 213 °C. The result for `N#CC1=C(c2cccs2)Nc2n[nH]cc2C1c1cccc2ccccc12` (stereo not drawn) [Example 246, 5-Cyano-4,7-dihydro-4-(naphthalen-1-yl)-6-(thiophen-2-yl)-2H-pyrazolo[3,4-b]pyridine] reads 214 °C. In turn, `CN(CCC1=C(C#N)C(c2cccc3nonc23)c2c[nH]nc2N1)C(=O)OC(C)(C)C` (stereo not drawn) [Example 1015, 4-(2,1,3-Benzoxadiazol-4-yl)-6-(2-(N-t-butoxycarbonyl-N-methylamino)ethyl)-5-cyano-4,7-dihydro-2H-pyrazolo[3,4-b]-pyridine] registered a melting point of 240 °C. `N#CC1=C(C2CCNCC2)Nc2n[nH]cc2C1c1cccc(C#N)c1Br` (stereo not drawn) [Example 1037, 4-(2-Bromo-3-cyanophenyl)-5-cyano-4,7-dihydro-6-(piperidin-4-yl)-2H-pyrazolo[3,4-b]pyridine] had a melting point of over 270 °C. On to `CCCC1=C(C(=O)OCC)C(c2cccc3nsnc23)c2c[nH]nc2N1` (stereo not drawn) [Example 112, Ethyl 4-(2,1,3-benzothiadiazol-4-yl)-4,7-dihydro-6-propyl-2H-pyrazolo[3,4-b]pyridine-5-carboxylate], for which the melting point was 180 °C.

On to `CCCC1=C(C(=O)OCC)C(c2cc(OC)ccc2OC)c2c[nH]nc2N1` (stereo not drawn) [Example 53, Ethyl 4-(2,5-dimethoxyphenyl)-4,7-dihydro-6-propyl-2H-pyrazolo[3,4-b]pyridine-5-carboxylate], for which the melting point fell in the range of 169 to 170 °C.

`CC(C)(C)C1=C(C#N)C(c2ccccc2Cl)c2c[nH]nc2N1` (stereo not drawn) [Example 307, 6-t-Butyl-4-(2-chlorophenyl)-5-cyano-4,7-dihydro-2H-pyrazolo[3,4-b]pyridine] registered a melting point of 198 °C. The result for `CCCC1=C(C#N)C(c2ccccc2Cl)c2c(n[nH]c2C2CCCCC2)N1` (stereo not drawn) [Example 311, 4-(2-Chlorophenyl)-5-cyano-3-cyclohexyl-4,7-dihydro-6-propyl-2H-pyrazolo[3,4-b]pyridine] reads over 270 °C; that for `CCC1=C(C#N)C(c2cccc(Cl)c2Cl)c2c[nH]nc2N1` (stereo not drawn) [Example 193, 5-Cyano-4-(2,3-dichlorophenyl)-6-ethyl-4,7-dihydro-2H-pyrazolo[3,4-b]pyridine], over 300 °C; that for `N#CC1=C(C2CC2)Nc2n[nH]cc2C1c1ccccc1Br` (stereo not drawn) [Example 267, 4-(2-Bromophenyl)-5-cyano-6-cyclopropyl-4,7-dihydro-2H-pyrazolo[3,4-b]pyridine], over 250 °C. `CN(CC1=C(C#N)C(c2cccc3nonc23)c2c[nH]nc2N1)C(=O)OC(C)(C)C` (stereo not drawn) [Example 1020, 4-(2,1,3-Benzoxadiazol-4-yl)-6-((N-t-butoxycarbonyl-N-methylamino)methyl)-5-cyano-4,7-dihydro-2H-pyrazolo[3,4-b]-pyridine]: the melting point is 207 °C. In the case of `CCOC(=O)C1=C(c2ccccc2)Nc2n[nH]cc2C1c1ccccc1Cl` (stereo not drawn) [Example 85, Ethyl 4-(2-chlorophenyl)-4,7-dihydro-6-phenyl-2H-pyrazolo[3,4-b]pyridine-5-carboxylate], the melting point amounted to 214 °C. The result for `CCOC(=O)C1=C(C)Nc2n[nH]cc2C1c1ccccc1Cl` (stereo not drawn) [Example 1, Ethyl 4-(2-chlorophenyl)-4,7-dihydro-6-methyl-2H-pyrazolo[3,4-b]pyridine-5-carboxylate] reads 217 to 221 °C. For `N#CC1=C(c2cccs2)Nc2n[nH]cc2C1c1cccc(Cl)c1Cl` (stereo not drawn) [Example 247, 5-Cyano-4-(2,3-dichlorophenyl)-4,7-dihydro-6-(thiophen-2-yl)-2H-pyrazolo[3,4-b]pyridine], the melting point turned out to be 232 °C. The result for `CCCC1=C(C#N)C(c2cccc3nocc23)c2c[nH]nc2N1` (stereo not drawn) [Example 331, 4-(2,1-Benzoisoxazol-4-yl)-5-cyano-4,7-dihydro-6-propyl-2H-pyrazolo[3,4-b]pyridine] reads 239 °C.

The term melting point denotes the temperature, or range, at which the solid turns liquid.
